Laboratory results as given in patent US6914045B2, “Glycopeptide antibiotics” (Wyeth Holdings Corporation, priority 2001, dated 2005).
Converted amounts (≈) assume the structure as drawn.

Columns and labels:
Staphylococcus sp. = assay: in vitro antibacterial evaluation, MIC by broth dilution; type: cell-based; conditions: broth dilution, 18 hours at 35° C.; for MIC Staphylococcus aureus (ATCC 29213): strain ATCC 29213; for MIC Staphylococcus aureus (GC 1131): strain GC 1131; for MIC Staphylococcus aureus (GC 3051): strain GC 3051; for MIC Staphylococcus aureus (GC 3053): strain GC 3053; for MIC Staphylococcus aureus (GC 4541): strain GC 4541; for MIC Staphylococcus aureus (GC 4542): strain GC 4542; for MIC Staphylococcus aureus-SMITH (GC 4543): strain GC 4543; for MIC Staphylococcus aureus (GC 4544): strain GC 4544; for MIC Staphylococcus aureus (GC 4545): strain GC 4545; for MIC Staphylococcus haemolyticus (GC 4546): strain GC 4546; for MIC Coagulase Negative Staphylococcus (GC 4547): strain GC 4547; for MIC Coagulase Negative Staphylococcus (GC 4548): strain GC 4548; for MIC Coagulase Negative Staphylococcus (GC 4549): strain GC 4549; for MIC Coagulase Negative Staphylococcus (GC 4551): strain GC 4551; for MIC Coagulase Negative Staphylococcus (GC 6257): strain GC 6257
Outline: (§1)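 Following National Committee for Clinical Laboratory Standards recommendations (M7-A2), susceptibility was measured by dilution in Muller-Hinton II […]. Bacteria were seeded at 5×10^5 CFU/mL against compound concentrations from 64 down to 0.06 μg/mL.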

Enterococcus sp. = assay: as above; type: cell-based; conditions: broth dilution, 18 hours at 35° C.
Outline: as §1

Streptococcus sp. = assay: as above; type: cell-based; conditions: broth dilution, 18 hours at 35° C.
Outline: as §1

Escherichia coli = assay: as above; type: cell-based; conditions: 18 hours at 35° C.
Outline: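 Broth dilution in Muller-Hinton II medium per NCCLS standard M7-A2, with an inoculum of 5×10^5 CFU/mL and antibiotic tested over 64-0.06 μg/mL. MIC was taken as the lowest concentration inhibiting visible growth.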

[1] = anatomic pathology (histopathology of heart and kidney) in mice; type: in vivo; conditions: CD-1 mice, 20 mg/kg intravenously daily for 9 days, necropsy day 10, microscopic histopathology
Procedure: Samples of tissues from necropsied mice were formalin-fixed, paraffin-embedded, sectioned, stained with hematoxylin and eosin, and examined microscopically. Histopathologic findings were recorded. These findings were subjectively graded on a scale corresponding to slight, mild, moderate, marked and severe as compared to untreated controls.

[2] = Enterococcus faecalis (GC 4553)

CC(c1ccccc1)C1NC(=O)CNC(=O)C(CO)NC(=O)C(C(O)C2CN(Cc3ccc4ccccc4c3)C(=N)N2C2OC(CO)C(O)C(O)C2O)NC(=O)C(C(O)C2CNC(=N)N2)NC(=O)C(Cc2ccc(OC3OC(CO)C(OC4OC(CO)C(O)C(O)C4O)C(O)C3O)cc2)NC1=O (stereo not drawn) [Example 67, Cyclo[glycyl-β-methylphenylalanyl-O-(4-O-hexopyranosylhexoyranosyl)tyrosyl-3-(2-iminoimidazolidin-4-yl)seryl-3-[3-hexopyranosyl-2-imino-1-(2-naphthylmethyl)-imidazolidin-4-yl]-serylseryl]]
MIC Staphylococcus aureus (ATCC 29213) (Staphylococcus sp.): >128 µg/mL | MIC Staphylococcus aureus (GC 1131) (Staphylococcus sp.): >128 µg/mL | MIC Staphylococcus aureus (GC 3051) (Staphylococcus sp.): >128 µg/mL | MIC Staphylococcus aureus (GC 3053) (Staphylococcus sp.): >128 µg/mL | MIC Staphylococcus aureus (GC 4541) (Staphylococcus sp.): >128 µg/mL | MIC Staphylococcus aureus (GC 4542) (Staphylococcus sp.): >128 µg/mL | MIC Staphylococcus aureus-SMITH (GC 4543) (Staphylococcus sp.): >128 µg/mL | MIC Staphylococcus aureus (GC 4544) (Staphylococcus sp.): >128 µg/mL | MIC Staphylococcus aureus (GC 4545) (Staphylococcus sp.): >128 µg/mL | MIC Staphylococcus haemolyticus (GC 4546) (Staphylococcus sp.): >128 µg/mL | MIC Coagulase Negative Staphylococcus (GC 4547) (Staphylococcus sp.): 128 µg/mL (≈ 89.2 µM) | MIC Coagulase Negative Staphylococcus (GC 4548) (Staphylococcus sp.): >128 µg/mL | MIC Coagulase Negative Staphylococcus (GC 4549) (Staphylococcus sp.): >128 µg/mL | MIC Coagulase Negative Staphylococcus (GC 4551) (Staphylococcus sp.): >128 µg/mL | MIC Coagulase Negative Staphylococcus (GC 6257) (Staphylococcus sp.): >128 µg/mL | MIC Enterococcus avium (GC 4558) (Enterococcus sp.; Enterococcus avium (GC 4558)): 64 µg/mL (≈ 44.6 µM) | MIC Enterococcus faecalis (ATCC 29212) (Enterococcus sp.; Enterococcus faecalis (ATCC 29212)): 128 µg/mL (≈ 89.2 µM) | MIC Enterococcus faecalis (GC 4552) (Enterococcus sp.; Enterococcus faecalis (GC 4552)): 128 µg/mL (≈ 89.2 µM) | MIC Enterococcus faecalis (GC 4553) (Enterococcus sp.; [2]): 128 µg/mL (≈ 89.2 µM) | MIC Enterococcus faecalis (GC 4554) (Enterococcus sp.; Enterococcus faecalis (GC 4554)): >128 µg/mL | MIC Enterococcus faecalis (GC 6189) (Enterococcus sp.; Enterococcus faecalis (GC 6189)): 128 µg/mL (≈ 89.2 µM) | MIC Enterococcus faecium (GC 2243) (Enterococcus sp.; Enterococcus faecium (GC 2243)): >128 µg/mL | MIC Enterococcus faecium (GC 4556) (Enterococcus sp.; Enterococcus faecium (GC 4556)): >128 µg/mL | MIC Enterococcus faecium (GC 4557) (Enterococcus sp.; Enterococcus faecium (GC 4557)): 128 µg/mL (≈ 89.2 µM) | MIC Enterococcus avium (GC 4558) (Enterococcus sp.): 64 µg/mL (≈ 44.6 µM) | MIC Enterococcus faecalis (ATCC 29212) (Enterococcus sp.): 128 µg/mL (≈ 89.2 µM) | MIC Enterococcus faecalis (GC 2242) (Enterococcus sp.): 128 µg/mL (≈ 89.2 µM) | MIC Enterococcus faecalis (GC 2691) (Enterococcus sp.): 128 µg/mL (≈ 89.2 µM) | MIC Enterococcus faecalis (GC 3059) (Enterococcus sp.): 128 µg/mL (≈ 89.2 µM) | MIC Enterococcus faecalis (GC 4552) (Enterococcus sp.): 128 µg/mL (≈ 89.2 µM) | MIC Enterococcus faecalis (GC 4553) (Enterococcus sp.): 128 µg/mL (≈ 89.2 µM) | MIC Enterococcus faecalis (GC 4554) (Enterococcus sp.): >128 µg/mL | MIC Enterococcus faecalis (GC 6189) (Enterococcus sp.): 128 µg/mL (≈ 89.2 µM) | MIC Enterococcus faecium (GC 2243) (Enterococcus sp.): >128 µg/mL | MIC Enterococcus faecium (GC 4556) (Enterococcus sp.): >128 µg/mL | MIC Enterococcus faecium (GC 4557) (Enterococcus sp.): 128 µg/mL (≈ 89.2 µM) | MIC Enterococcus faecalis (GC 2242) (Enterococcus sp.; strain GC 2242): 128 µg/mL (≈ 89.2 µM) | MIC Enterococcus faecalis (GC 2691) (Enterococcus sp.; strain GC 2691): 128 µg/mL (≈ 89.2 µM) | MIC Enterococcus faecalis (GC 3059) (Enterococcus sp.; strain GC 3059): 128 µg/mL (≈ 89.2 µM) | MIC Streptococcus agalactiae (GC 4564) (Streptococcus sp.): 128 µg/mL (≈ 89.2 µM) | MIC Streptococcus pneumoniae (ATCC 6301) (Streptococcus sp.): 128 µg/mL (≈ 89.2 µM) | MIC Streptococcus pneumoniae (GC 1894) (Streptococcus sp.): 64 µg/mL (≈ 44.6 µM) | MIC Streptococcus pneumoniae (GC 4565) (Streptococcus sp.): 128 µg/mL (≈ 89.2 µM) | MIC Streptococcus pyogenes (GC 4563) (Streptococcus sp.): 128 µg/mL (≈ 89.2 µM) | MIC Streptococcus pneumoniae (ATCC 6301) (Streptococcus sp.; strain ATCC 6301): 128 µg/mL (≈ 89.2 µM) | MIC Streptococcus pneumoniae (GC 1894) (Streptococcus sp.; strain GC 1894): 64 µg/mL (≈ 44.6 µM) | MIC Streptococcus pyogenes (GC 4563) (Streptococcus sp.; strain GC 4563): 128 µg/mL (≈ 89.2 µM) | MIC Streptococcus agalactiae (GC 4564) (Streptococcus sp.; strain GC 4564): 128 µg/mL (≈ 89.2 µM) | MIC Streptococcus pneumoniae (GC 4565) (Streptococcus sp.; strain GC 4565): 128 µg/mL (≈ 89.2 µM) | MIC Escherichia coli (ATCC 25922) (Escherichia coli): >128 µg/mL | MIC Escherichia coli (GC 4559) (Escherichia coli): >128 µg/mL | MIC Escherichia coli (GC 4560) (Escherichia coli): 32 µg/mL (≈ 22.3 µM) | Anatomical Pathology (Day 10), Heart [1]: 0 | Anatomical Pathology (Day 10), Kidney [1]: 0

CC(c1ccccc1)C1NC(=O)CNC(=O)C(CO)NC(=O)C(C(O)C2CNC(=NCc3ccccc3)N2C2OC(CO)C(O)C(O)C2O)NC(=O)C(C(O)C2CNC(=N)N2)NC(=O)C(Cc2ccc(OC3OC(CO)C(OC4OC5COC6(OC5C(O)C4O)C4CC5CC(C4)CC6C5)C(O)C3O)cc2)NC1=O (stereo not drawn) [Example 76, Cyclo[glycyl-β-methylphenylalanyl-O-[4-O-[4,6-O-(2-adamantylidene)hexopyranosyl]hexopyranosyl]tyrosyl-3-(2-iminoimidazolidin-4-yl)seryl-3-[2-(benzylimino)-3-hexopyranosylimidazolidin-4-yl]serylseryl]]
MIC Staphylococcus aureus (ATCC 29213) (Staphylococcus sp.): 2 to 8 µg/mL | MIC Staphylococcus aureus (GC 1131) (Staphylococcus sp.): 4 to 8 µg/mL | MIC Staphylococcus aureus (GC 3051) (Staphylococcus sp.): 2 to 8 µg/mL | MIC Staphylococcus aureus (GC 3053) (Staphylococcus sp.): 2 to 8 µg/mL | MIC Staphylococcus aureus (GC 4541) (Staphylococcus sp.): 2 to 4 µg/mL | MIC Staphylococcus aureus (GC 4542) (Staphylococcus sp.): 2 to 8 µg/mL | MIC Staphylococcus aureus-SMITH (GC 4543) (Staphylococcus sp.): 1 to 4 µg/mL | MIC Staphylococcus aureus (GC 4544) (Staphylococcus sp.): 4 to 8 µg/mL | MIC Staphylococcus aureus (GC 4545) (Staphylococcus sp.): 2 to 8 µg/mL | MIC Staphylococcus haemolyticus (GC 4546) (Staphylococcus sp.): 2 to 4 µg/mL | MIC Coagulase Negative Staphylococcus (GC 4547) (Staphylococcus sp.): 2 to 4 µg/mL | MIC Coagulase Negative Staphylococcus (GC 4548) (Staphylococcus sp.): 2 to 4 µg/mL | MIC Coagulase Negative Staphylococcus (GC 4549) (Staphylococcus sp.): 2 to 4 µg/mL | MIC Coagulase Negative Staphylococcus (GC 4551) (Staphylococcus sp.): 2 to 8 µg/mL | MIC Coagulase Negative Staphylococcus (GC 6257) (Staphylococcus sp.): 0.5 to 2 µg/mL | MIC Enterococcus avium (GC 4558) (Enterococcus sp.; Enterococcus avium (GC 4558)): 2 to 8 µg/mL | MIC Enterococcus faecalis (GC 4553) (Enterococcus sp.; [2]): 4 to 8 µg/mL | MIC Enterococcus faecium (GC 2243) (Enterococcus sp.; Enterococcus faecium (GC 2243)): 2 to 8 µg/mL | MIC Enterococcus faecium (GC 4557) (Enterococcus sp.; Enterococcus faecium (GC 4557)): 1 to 2 µg/mL | MIC Enterococcus avium (GC 4558) (Enterococcus sp.): 2 to 8 µg/mL | MIC Enterococcus faecalis (ATCC 29212) (Enterococcus sp.): 4 to 16 µg/mL | MIC Enterococcus faecalis (GC 2242) (Enterococcus sp.): 4 to 16 µg/mL | MIC Enterococcus faecalis (GC 2691) (Enterococcus sp.): 4 to 16 µg/mL | MIC Enterococcus faecalis (GC 3059) (Enterococcus sp.): 4 to 32 µg/mL | MIC Enterococcus faecalis (GC 4552) (Enterococcus sp.): 4 to 16 µg/mL | MIC Enterococcus faecalis (GC 4553) (Enterococcus sp.): 4 to 8 µg/mL | MIC Enterococcus faecalis (GC 4554) (Enterococcus sp.): 4 to 32 µg/mL | MIC Enterococcus faecalis (GC 6189) (Enterococcus sp.): 4 to 16 µg/mL | MIC Enterococcus faecium (GC 2243) (Enterococcus sp.): 2 to 8 µg/mL | MIC Enterococcus faecium (GC 4556) (Enterococcus sp.): 4 to 16 µg/mL | MIC Enterococcus faecium (GC 4557) (Enterococcus sp.): 1 to 2 µg/mL | MIC Streptococcus agalactiae (GC 4564) (Streptococcus sp.): 0.25 to 2 µg/mL | MIC Streptococcus pneumoniae (ATCC 6301) (Streptococcus sp.): <0.12 to 1 µg/mL | MIC Streptococcus pneumoniae (GC 1894) (Streptococcus sp.): <0.06 to 0.25 µg/mL | MIC Streptococcus pneumoniae (GC 4565) (Streptococcus sp.): 0.25 to 4 µg/mL | MIC Streptococcus pyogenes (GC 4563) (Streptococcus sp.): 0.25 to 2 µg/mL | MIC Escherichia coli (GC 4560) (Escherichia coli): 2 to 4 µg/mL | Anatomical Pathology (Day 10), Heart [1]: 0 | Anatomical Pathology (Day 10), Kidney [1]: ++
